Data taken from the NIST ThermoML archive (doi:10.1016/j.jct.2008.07.021).
Numbers after ± are expanded uncertainties.

Key:
[1] = Crystal; DTA
[2] = Molar enthalpy of transition or fusion; settings: Crystal; DSC
[3] = molar enthalpy of vaporization or sublimation; settings: 298.15 K; Crystal; Static calorimetry

| Compound | Triple point temperature [1] [K] | Molar enthalpy of transition or fusion [2] [kcal/mol] | molar enthalpy [3] [kcal/mol] |
| --- | --- | --- | --- |
| COc1ccc2c(c1)C(=O)CCC2 [7-methoxy-1-tetralone] | 334.79 ± 0.39 | 5.54 ± 0.127 | 24.6 ± 0.43 |
| COc1ccc2c(c1)CCCC2=O [3,4-dihydro-6-methoxy-1(2H)naphthalenone] | 351.27 ± 0.49 | 5.45 ± 0.182 | 25 ± 0.43 |
| COc1cccc2c1CCCC2=O [3,4-dihydro-5-methoxy-1(2H)-naphthalenone] | 362.52 ± 0.39 | 5.29 ± 0.124 | 23.4 ± 0.215 |
